In patent US7132553B2, “Product comprising an inhibitor of the transduction of heterotrimeric G protein signals combined with an anti-hypertensive agent for therapeutic use in the treatment of arterial hypertension” (Societe de Conseils de Recherches et d'Applications …, priority 2000, dated 2006):

How the values were obtained:
[1] = test system: spontaneously hypertensive rats (SHR); test: Arterial pressure in anaesthetized spontaneously hypertensive rats (carotid catheter); format: in vivo; details: SHR rat, single intravenous injection, verapamil 0.1 or 0.3 mg/kg, captopril 1 mg/kg; for time of return of arterial pressure to initial values after injection: G protein inhibitor 1 mg/kg; for effect on arterial pressure (in words): G protein inhibitor 1 mg/kg (FIG. 1)
Protocol: (§1) 13/14 week old male SHR rats (Charles River France) are anaesthetized using pentobarbital (Sanofi) (60 mg/kg/IP). […] After a stabilization period of 10 minutes, the product or two products simultaneously are administered and their effects are monitored for 20 minutes.
(§2) For administration purposes, 7-(2-amino-1-oxo-3-thiopropyl)-8-(cyclohexylmethyl)-2-phenyl-5,6,7,8-tetrahydro-imidazo[1,2a]pyrazine, verapamil (Sigma, USA) and captopril (Sigma, USA) can be dissolved in an aqueous solution of NaCl at 0.9%.

[2] = test system: spontaneously hypertensive rats (SHR); test: Heart rate in anaesthetized spontaneously hypertensive rats (carotid catheter); format: in vivo; design: Frequency difference (Δ) (reduction in heart rate): unit not given here; details: SHR rat; for Frequency difference (Δ) (reduction in heart rate): single product, intravenous, monitored 20 minutes; for reduction in heart rate, maximum difference (delta): baseline 328 to 371 beats per minute (FIG. 2)
Protocol: as §1, §2

| SMILES | time of return of arterial pressure to initial values after injection [1] | effect on arterial pressure (in words) [1] | Frequency difference (Δ) (reduction in heart rate) ([2]; dose 1 mg/kg) | change of heart rate (in words) ([2]; single products, single intravenous injection (FIG. 2)) | reduction in heart rate, maximum difference (delta) ([2]; 1 mg/kg intravenous) | reduction in heart rate, maximum difference (delta) ([2]; 0.1 mg/kg intravenous) | reduction in heart rate, maximum difference (delta) ([2]; 0.3 mg/kg intravenous) | Frequency difference (Δ) (reduction in heart rate) ([2]; dose 0.1 mg/kg) | Frequency difference (Δ) (reduction in heart rate) ([2]; dose 0.3 mg/kg) |
| --- | --- | --- | --- | --- | --- | --- | --- | --- | --- |
| C[C@H](CS)C(=O)N1CCC[C@H]1C(=O)O [Captopril, captopril] | 20 min | immediate reduction | 1 | does not change the heart rate at all | – | – | – | – | – |
| NC(CS)C(=O)N1CCn2cc(-c3ccccc3)nc2C1CC1CCCCC1 (centres unmarked) [Compound 2, 7-(2-amino-1-oxo-3-thiopropyl)-8-(cyclohexylmethyl)-2-phenyl-5,6,7,8-tetrahydroimidazo[1,2a]pyrazine] | 20 min | immediate reduction | 44 | – | 44 | – | – | – | – |
| COc1ccc(CCN(C)CCCC(C#N)(c2ccc(OC)c(OC)c2)C(C)C)cc1OC (centres unmarked) [Verapamil, verapamil] | 20 min | immediate reduction | – | – | – | 32 | 56 | 28 | 56 |
